# Like-named read-outs stand apart in the source and are kept apart here.
# Key:
# Format in all cases: cell-based
# [1] = target: T1, NR2F6 LBD (Homo sapiens, UniProt P10588); assay: NR2F6 LBD transient transfection; conditions: LBD
# T1 construct: expressed in transfected cells
# T1 sequence (P10588 165-393 limits assumed): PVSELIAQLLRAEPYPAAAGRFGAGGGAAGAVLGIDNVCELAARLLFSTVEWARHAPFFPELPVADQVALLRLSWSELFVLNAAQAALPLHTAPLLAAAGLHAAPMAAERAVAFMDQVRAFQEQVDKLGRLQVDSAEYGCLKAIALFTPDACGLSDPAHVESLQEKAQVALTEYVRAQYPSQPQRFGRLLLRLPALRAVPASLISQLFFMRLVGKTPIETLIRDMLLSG
# In short: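 LBD-transfected cells treated at 40, 10, 2 and 0.5 μM (4 replicates); cytotoxicity measured in parallel, normalized to DMSO (0%) and zero signal (100%). Higher concentrations excluded where signal loss reflected toxicity.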
# [2] = target: T2, NR2F6 (Homo sapiens, UniProt P10588); assay: NR2F6 agonist screening, Firefly signal cmpd/DMSO
# T2 construct: expressed in transfected cells; also transient transfection
# T2 sequence (P10588 1-404): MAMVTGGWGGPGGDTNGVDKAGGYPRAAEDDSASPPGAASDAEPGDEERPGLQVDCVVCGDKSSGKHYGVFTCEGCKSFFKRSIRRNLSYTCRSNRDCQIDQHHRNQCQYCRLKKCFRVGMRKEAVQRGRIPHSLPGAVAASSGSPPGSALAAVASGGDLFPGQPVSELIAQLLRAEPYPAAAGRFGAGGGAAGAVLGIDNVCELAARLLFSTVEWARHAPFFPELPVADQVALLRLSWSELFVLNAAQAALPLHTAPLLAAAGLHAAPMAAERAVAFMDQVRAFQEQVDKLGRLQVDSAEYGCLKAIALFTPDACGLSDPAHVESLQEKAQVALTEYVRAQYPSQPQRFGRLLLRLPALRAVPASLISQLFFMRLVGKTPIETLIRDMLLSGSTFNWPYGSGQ
# [3] = test system: HEK293 pGL4; assay: Firefly_pGL signal, cmpd/DMSO (pGL4 control cells); conditions: Homo sapiens
# [4] = test system: Renilla; assay: Renilla signal in NR2F6 agonist screening, cmpd/DMSO; conditions: Renilla, F4
# [5] = HEK293, 0.5 uM, pGL4, read-out: Firefly pGL4, cmpd/DMSO (mean)
# [6] = HEK293, 2 uM, pGL4, read-out: Firefly pGL4, cmpd/DMSO (mean)
# [7] = HEK293, 10 uM, pGL4, read-out: Firefly pGL4, cmpd/DMSO (mean)
# [8] = HEK293, 40 uM, pGL4, read-out: Firefly pGL4, cmpd/DMSO (mean)
# [9] = HEK293, pGL4, 1% FBS, 0.5 uM, read-out: Firefly, pGL4, 1% FBS, cmpd/DMSO (mean)
# [10] = HEK293, pGL4, 1% FBS, 2 uM, read-out: Firefly, pGL4, 1% FBS, cmpd/DMSO (mean)
# [11] = HEK293, pGL4, 1% FBS, 10 uM, read-out: Firefly, pGL4, 1% FBS, cmpd/DMSO (mean)
# [12] = HEK293, pGL4, 1% FBS, 40 uM, read-out: Firefly, pGL4, 1% FBS, cmpd/DMSO (mean)
# [13] = HEK293, pGL4, 10% FBS, 0.5 uM, read-out: Firefly, pGL4, 10% FBS, cmpd/DMSO (mean)
# [14] = HEK293, pGL4, 10% FBS, 2 uM, read-out: Firefly, pGL4, 10% FBS, cmpd/DMSO (mean)
# [15] = HEK293, pGL4, 10% FBS, 10 uM, read-out: Firefly, pGL4, 10% FBS, cmpd/DMSO (mean)
# [16] = HEK293, pGL4, 10% FBS, 40 uM, read-out: Firefly, pGL4, 10% FBS, cmpd/DMSO (mean)
# [17] = read-out: Renilla, F4, cmpd/DMSO (mean)
# [18] = 1% FBS, read-out: Renilla, F4, 1% FBS, cmpd/DMSO (mean)
# [19] = 10% FBS, read-out: Renilla, F4, 10% FBS, cmpd/DMSO (mean)
smiles,measurement,setting,value
O=S1(=O)C[C@H](NC2CCCCCC2)[C@@H](S(=O)(=O)c2ccc(Cl)cc2)C1 [Compound D130],"Firefly LBD, cmpd/DMSO (mean)",[1]; 0.5 uM,1.1
same,"Firefly LBD, cmpd/DMSO (mean)",[1]; 2 uM,1.7
same,"Firefly LBD, cmpd/DMSO (mean)",[1]; 10 uM,3.1
same,"Firefly LBD, cmpd/DMSO (mean)",[1]; 40 uM,0.7
same,"Firefly F4, cmpd/DMSO (mean)",[2]; 0.5 uM,1.4
same,"Firefly F4, cmpd/DMSO (mean)",[2]; 2 uM,2.2
same,"Firefly F4, cmpd/DMSO (mean)",[2]; 10 uM,4.0
same,"Firefly F4, cmpd/DMSO (mean)",[2]; 40 uM,1.6
same,"F4, Firefly/Renilla for S/B(F4) > 3","[2]; 1% FBS, 10 uM",2.3
same,"Firefly, F4/pGL4 for S/B(F4) > 3","[2]; 1% FBS, 10 uM",1.8
same,"F4, Firefly/Renilla for S/B(F4) > 3","[2]; 10% FBS, 10 uM",2.7
same,"Firefly, F4/pGL4 for S/B(F4) > 3","[2]; 10% FBS, 10 uM",1.4
same,"F4, Firefly/Renilla for S/B(F4) > 3","[2]; 10% FBS, 40 uM",2.4
same,"Firefly, F4/pGL4 for S/B(F4) > 3","[2]; 10% FBS, 40 uM",2.0
same,"Firefly, F4, 1% FBS, cmpd/DMSO (mean)","[2]; 1% FBS, 0.5 uM",0.7
same,"Firefly, F4, 1% FBS, cmpd/DMSO (mean)","[2]; 1% FBS, 2 uM",1.2
same,"Firefly, F4, 1% FBS, cmpd/DMSO (mean)","[2]; 1% FBS, 10 uM",3.6
same,"Firefly, F4, 1% FBS, cmpd/DMSO (mean)","[2]; 1% FBS, 40 uM",0.6
same,"Firefly, F4, 10% FBS, cmpd/DMSO (mean)","[2]; 10% FBS, 0.5 uM",1.1
same,"Firefly, F4, 10% FBS, cmpd/DMSO (mean)","[2]; 10% FBS, 2 uM",1.2
same,"Firefly, F4, 10% FBS, cmpd/DMSO (mean)","[2]; 10% FBS, 10 uM",3.4
same,"Firefly, F4, 10% FBS, cmpd/DMSO (mean)","[2]; 10% FBS, 40 uM",5.0
same,fold induction at 0.5 µM,[3]; [5],1.2
same,fold induction at 2 µM,[3]; [6],1.8
same,fold induction at 10 µM,[3]; [7],3.4
same,fold induction at 40 µM,[3]; [8],0.6
same,fold induction at 0.5 µM,[3]; [9],1.2
same,fold induction at 2 µM,[3]; [10],2
same,fold induction at 10 µM,[3]; [11],2
same,fold induction at 40 µM,[3]; [12],0.9
same,fold induction at 0.5 µM,[3]; [13],1
same,fold induction at 2 µM,[3]; [14],1.6
same,fold induction at 10 µM,[3]; [15],2.5
same,fold induction at 40 µM,[3]; [16],2.5
same,fold induction at 0.5 µM,[4]; [17],1.1
same,fold induction at 2 µM,[4]; [17],1.2
same,fold induction at 10 µM,[4]; [17],1.5
same,fold induction at 40 µM,[4]; [17],1.8
same,fold induction at 0.5 µM,[4]; [18],1.1
same,fold induction at 2 µM,[4]; [18],1.2
same,fold induction at 10 µM,[4]; [18],1.6
same,fold induction at 40 µM,[4]; [18],1.9
same,fold induction at 0.5 µM,[4]; [19],0.8
same,fold induction at 2 µM,[4]; [19],0.9
same,fold induction at 10 µM,[4]; [19],1.3
same,fold induction at 40 µM,[4]; [19],2.1
CCCCN(C)[C@H]1CS(=O)(=O)C[C@@H]1S(=O)(=O)c1ccc(Cl)cc1 [Compound D132],"Firefly LBD, cmpd/DMSO (mean)",[1]; 0.5 uM,1.1
same,"Firefly LBD, cmpd/DMSO (mean)",[1]; 2 uM,2.1
same,"Firefly LBD, cmpd/DMSO (mean)",[1]; 10 uM,4.3
same,"Firefly LBD, cmpd/DMSO (mean)",[1]; 40 uM,0.4
same,"Firefly F4, cmpd/DMSO (mean)",[2]; 0.5 uM,1.5
same,"Firefly F4, cmpd/DMSO (mean)",[2]; 2 uM,1.9
same,"Firefly F4, cmpd/DMSO (mean)",[2]; 10 uM,5.5
same,"Firefly F4, cmpd/DMSO (mean)",[2]; 40 uM,1.1
same,"F4, Firefly/Renilla for S/B(F4) > 3","[2]; 1% FBS, 10 uM",3.0
same,"Firefly, F4/pGL4 for S/B(F4) > 3","[2]; 1% FBS, 10 uM",1.9
same,"F4, Firefly/Renilla for S/B(F4) > 3","[2]; 10% FBS, 10 uM",2.0
same,"Firefly, F4/pGL4 for S/B(F4) > 3","[2]; 10% FBS, 10 uM",1.2
same,"F4, Firefly/Renilla for S/B(F4) > 3","[2]; 10% FBS, 40 uM",1.8
same,"Firefly, F4/pGL4 for S/B(F4) > 3","[2]; 10% FBS, 40 uM",3.4
same,"Firefly, F4, 1% FBS, cmpd/DMSO (mean)","[2]; 1% FBS, 0.5 uM",0.7
same,"Firefly, F4, 1% FBS, cmpd/DMSO (mean)","[2]; 1% FBS, 2 uM",1.3
same,"Firefly, F4, 1% FBS, cmpd/DMSO (mean)","[2]; 1% FBS, 10 uM",5.0
same,"Firefly, F4, 1% FBS, cmpd/DMSO (mean)","[2]; 1% FBS, 40 uM",0.5
same,"Firefly, F4, 10% FBS, cmpd/DMSO (mean)","[2]; 10% FBS, 0.5 uM",0.9
same,"Firefly, F4, 10% FBS, cmpd/DMSO (mean)","[2]; 10% FBS, 2 uM",1.4
same,"Firefly, F4, 10% FBS, cmpd/DMSO (mean)","[2]; 10% FBS, 10 uM",3.3
same,"Firefly, F4, 10% FBS, cmpd/DMSO (mean)","[2]; 10% FBS, 40 uM",5.4
same,"Activity, cmpd/DMSO",[2]; Table 31,6.6
same,fold induction at 0.5 µM,[3]; [5],1.6
same,fold induction at 2 µM,[3]; [6],1.6
same,fold induction at 10 µM,[3]; [7],4.9
same,fold induction at 40 µM,[3]; [8],0.5
same,fold induction at 0.5 µM,[3]; [9],1
same,fold induction at 2 µM,[3]; [10],1.6
same,fold induction at 10 µM,[3]; [11],2.6
same,fold induction at 40 µM,[3]; [12],0.8
same,fold induction at 0.5 µM,[3]; [13],0.9
same,fold induction at 2 µM,[3]; [14],1.3
same,fold induction at 10 µM,[3]; [15],2.7
same,fold induction at 40 µM,[3]; [16],1.6
same,fold induction at 0.5 µM,[4]; [17],1
same,fold induction at 2 µM,[4]; [17],1.2
same,fold induction at 10 µM,[4]; [17],1.7
same,fold induction at 40 µM,[4]; [17],1.3
same,fold induction at 0.5 µM,[4]; [18],1.1
same,fold induction at 2 µM,[4]; [18],1.3
same,fold induction at 10 µM,[4]; [18],1.7
same,fold induction at 40 µM,[4]; [18],1.7
same,fold induction at 0.5 µM,[4]; [19],0.9
same,fold induction at 2 µM,[4]; [19],1.1
same,fold induction at 10 µM,[4]; [19],1.6
same,fold induction at 40 µM,[4]; [19],3

# From US11377442B2, “Small molecule agonists and antagonists of NR2F6 activity” (ZANDER THERAPEUTICS, INC., priority 2016, dated 2022)
